Reference: ChEMBL document CHEMBL1130638, “Hepatoprotective, superoxide scavenging, and antioxidative activities of aromatic constituents from the bark of Betula platyphylla var. japonica” (1998)

Key:
Format in all cases: functional
Rattus norvegicus [1] = species on record: Rattus norvegicus; test: Compound was tested for hepatoprotective activity against D-GalN-induced cytotoxicity in primary cultured rat hepatocytes at 100 uM dose; details: Hepatocyte
Rattus norvegicus [2] = species on record: Rattus norvegicus; test: Compound was tested for hepatoprotective activity against D-GalN-induced cytotoxicity in primary cultured rat hepatocytes at 30 uM dose; details: Hepatocyte
Rattus norvegicus [3] = species on record: Rattus norvegicus; test: Compound was tested for hepatoprotective activity against D-GalN-induced cytotoxicity in primary cultured rat hepatocytes at 3 uM dose; details: Hepatocyte
Rattus norvegicus [4] = species on record: Rattus norvegicus; test: Compound was tested for hepatoprotective activity against D-GalN-induced cytotoxicity in primary cultured rat hepatocytes at 10 uM dose; details: Hepatocyte
Rattus norvegicus [5] = species on record: Rattus norvegicus; test: Compound was tested for antioxidative activity using TBA method at a concentration of 200 ug/mL.
Rattus norvegicus [6] = species on record: Rattus norvegicus; test: Compound was tested for O2- scavenging activity using NBT method at a concentration of 20 ug/mL.
Rattus norvegicus [7] = species on record: Rattus norvegicus; test: Compound was tested for antioxidative activity using TBA method at a concentration of 200 ug/ml.
Rattus norvegicus [8] = species on record: Rattus norvegicus; test: Compound was tested for O2- scavenging activity using NBT method at a concentration of 20 ug/ml.

SMILES	inhibition at 100 µM (Rattus norvegicus [1]) [%]	inhibition at 30 µM (Rattus norvegicus [2]) [%]	inhibition at 3 µM (Rattus norvegicus [3]) [%]	inhibition at 10 µM (Rattus norvegicus [4]) [%]	Inhibition (Rattus norvegicus [5]) [%]	inhibition (Rattus norvegicus [6]) [%]	Inhibition (Rattus norvegicus [7]) [%]	inhibition (Rattus norvegicus [8]) [%]
COc1cc([C@@H]2c3c(cc(OC)c(O)c3OC)C[C@H](CO)[C@H]2CO[C@H]2O[C@@H](CO)[C@@H](O)[C@H](O)[C@@H]2O)cc(OC)c1O	28.9	10.5	8.3	7.6	87.2	58.8		
C[C@@H](CCc1ccc(O)cc1)O[C@@H]1O[C@H](CO[C@@H]2OC[C@](O)(CO)[C@H]2O)[C@H](O)[C@@H](O)[C@H]1O	-4.5	0.7	3.6	1.7	21.8	10.8		
Cc1c(C)c2c(c(C)c1O)CC[C@@](C)(CCC[C@H](C)CCC[C@H](C)CCCC(C)C)O2 [ALPHA-TOCOPHEROL]					56.7			
Oc1ccc([C@H]2Oc3cc(OC4OCC(O)C(O)C4O)cc(O)c3C[C@@H]2O)cc1O (stereo partly specified)	9.4	8.5	4.8	8.8	50.1	92.9		
OC[C@H]1O[C@@H](O[C@@H](CCc2ccc(O)cc2)C[C@@H](O)CCc2ccc(O)cc2)[C@H](O)[C@H](O)[C@H]1O	37.4	21.7	9.9	7.4			61.8	1.8
OC[C@@]1(O)CO[C@@H](OC[C@H]2O[C@@H](O[C@H](CCCCc3ccc(O)cc3)CCc3ccc(O)cc3)[C@H](O)[C@H](O)[C@H]2O)[C@@H]1O	55.3	43.9	28.3	38.4				
COc1cc([C@H]2c3c(cc(OC)c(O)c3OC)C[C@@H](CO)[C@@H]2CO[C@H]2O[C@@H](CO)[C@@H](O)[C@H](O)[C@@H]2O)cc(OC)c1O	26.9	24.1	22.3	24.8	96.8	67.3		
C[C@H](CCc1ccc(O)cc1)O[C@@H]1O[C@H](CO[C@@H]2OC[C@](O)(CO)[C@H]2O)[C@H](O)[C@@H](O)[C@H]1O	-2.3	2.1	1.4	-1.6	93.5	1.8		
Cc1cc(C(C)(C)C)c(O)c(C(C)(C)C)c1 [BUTYLATED HYDROXYTOLUENE]					97			
C[C@@H](CCc1ccc(O)cc1)O[C@@H]1O[C@H](CO[C@@H]2O[C@@H](CO)[C@H](O)[C@H]2O)[C@@H](O)[C@H](O)[C@H]1O	5.4	9.6	10.1	3.6		4		
C[C@H](CCc1ccc(O)cc1)O[C@@H]1O[C@H](CO)[C@@H](O)[C@H](O)[C@H]1O	-0.8	4.9	4.7	10.1				
O=C1c2c(O)cc(O)cc2O[C@H](c2ccc(O)c(O)c2)[C@H]1O [(+)-TAXIFOLIN]					37	93.8		
COc1cc(C(C)(C)C)c(O)c(C(C)(C)C)c1					88			
OC[C@H]1O[C@@H](O[C@@H](CCc2ccc(O)cc2)C[C@H](O)CCc2ccc(O)cc2)[C@H](O)[C@H](O)[C@H]1O	74.7	27.3	16.2	14.1			56.3	1
C[C@H](CCc1ccc(O)cc1)O[C@@H]1O[C@H](CO[C@@H]2O[C@H](CO)[C@@H](O)[C@@H]2O)[C@H](O)[C@@H](O)[C@H]1O	6.8	7.5	3.4	6.2	98.2	5.1		
